≈ marks a conversion by molar mass, not a printed value. Where two headings read alike, the source gives them in different places. Residues, ends and D or L forms follow the SMILES beside them. No end group written: not given here.

From PMC10487658, “Identification and Characterization of RK22, a Novel Antimicrobial Peptide from Hirudinaria manillensis against Methicillin Resistant Staphylococcus aureus” (International Journal of Molecular Sciences, 2023) come the findings set out here.

For one data set, the system named is P. aeruginosa, ATCC9027. The class given is cell-based, Pseudomonas aeruginosa. As to conditions: RPMI 1640, 37 °C, 12–16 h, absorbance at 600 nm.
A further data set has as its system E. coli, ATCC25922. Format: cell-based, Escherichia coli. The following applies: RPMI 1640, 37 °C, 12–16 h, absorbance at 600 nm.
Data set [1] has as its system MRSA-Z (clinically isolated methicillin-resistant S. aureus). In words: microbe, parasite or virus in culture. Format: cell-based, Staphylococcus aureus. The following applies: Staphylococcus aureus, MRSA. As to the method: (§1) The bacterial strains used in this study included Pseudomonas aeruginosa (P. aeruginosa, ATCC27853), Acinetobacter baumannii (A. baumannii, ATCC19606), Escherichia coli (E. coli, ATCC8739), and S. aureus (ATCC6538, two clinically isolated strains (SA220823 and SA15772)), and three clinically isolated methicillin-resistant strains (MRSA-Z, MRSA11, and MRSA22). All strains were grown in Luria-Bertani (LB) broth.
(§2) The minimum inhibitory concentration (MIC) for all strains was determined using the […] assay based on a previous study with minor modifications. Initially, strains in the exponential phase were diluted to a concentration of 2 × 10^5 CFU/mL using RPMI 1640 medium (Corning, New York, NY, USA). Next, 100 μL of the bacterial suspension was mixed with 100 μL of the sample solution (final concentration 0–200 μg/mL in RPMI 1640 medium) in 96-well plates. The plates were then incubated at 37 °C for 12–16 h. After incubation, the absorbance at 600 nm was measured, and the MIC was determined as the lowest concentration of the test sample in which no bacterial growth was detected in the well.

In data set [2] the test system is MRSA11 (clinically isolated methicillin-resistant S. aureus). In words: microbe, parasite or virus in culture. The class given is cell-based, Staphylococcus aureus. As to conditions: Staphylococcus aureus. As to the method: as §1, §2
Data set [3] concerns MRSA22 (clinically isolated methicillin-resistant S. aureus). Put plainly: microbe, parasite or virus in culture. The class given is cell-based, Staphylococcus aureus. As to conditions: Staphylococcus aureus. As to the method:
as §1, §2

The next data set has as its system S. aureus (ATCC6538). Put plainly: microbe, parasite or virus in culture. Format: cell-based, Staphylococcus aureus. As to the method: as §1, §2
Data set [4] relates to SA15772 (clinically isolated S. aureus). Put plainly: microbe, parasite or virus in culture. The following applies: Staphylococcus aureus. The class given is cell-based, Staphylococcus aureus. As to the method:
as §1, §2

Data set [5] has as its system SA220823 (clinically isolated S. aureus). In words: microbe, parasite or virus in culture. Format: cell-based, Staphylococcus aureus. As to conditions: Staphylococcus aureus. As to the method: as §1, §2
For data set [6], the system named is MRSA-Z. Put plainly: Bacterial killing kinetic assay. The class given is cell-based, Staphylococcus aureus. As to conditions: 10 × MIC, 6 h, RPMI 1640, 37 °C, CFU count, 3 individual experiments. As to the method: (§3) The bactericidal killing kinetic assay was performed according to a previous study with minor modifications. Firstly, S. aureus ATCC6538 or methicillin-resistant S. aureus MRSA-Z was diluted to 2 × 10^5 CFU/mL using RPMI 1640 medium. Equal volumes of either RK22 (final concentration 1, 5, 10 × MIC) or vancomycin (Macklin, Shanghai, China) (final concentration 1, 5, 10 × MIC) solutions were added to the bacterial suspension. The mixtures were then incubated at 37 °C for different times (0, 15, 30, 60, 180, and 360 min). At each time point, the bacterial solution was inoculated on LB agar culture medium, and colony forming units (CFUs) were counted after 24 h.

The test system of data set [7] is S. aureus ATCC6538. Put plainly: Bacterial killing kinetic assay. The class given is cell-based, Staphylococcus aureus. As to conditions: RPMI 1640, 37 °C, CFU count, 3 individual experiments. As to the method: as §3
Data set [8] has as its system MRSA-Z. In words: S. aureus-induced bacteremia model. The class given is in vivo, mouse. As to conditions: RK22 8 mg/kg, vancomycin 4 mg/kg ip 1 h after infection, 4 h after administration. As to the method: (§4) S. aureus ATCC6538 or methicillin-resistant S. aureus MRSA-Z were diluted to a concentration of 1 × 10^9 CFU/mL with normal saline. Male C57BL/6 mice (6–8 weeks of age) were randomly divided into seven groups of 10–12 mice per group. S. aureus ATCC6538 (100 μL) or methicillin-resistant S. aureus MRSA-Z (200 μL) were injected intravenously. At the end of 1 h, mice received an intraperitoneal injection of normal saline, vancomycin (dissolved in saline with the concentration of 2 and 4 mg/kg), or RK22 (dissolved in saline with the concentration of 2, 4, and 8 mg/kg). At 4 h post-administration, the mice were sacrificed, and blood and lung samples were collected. Lungs were then weighed and placed in 1 mL of PBS and homogenized on ice with a tissue grinder. Homogenates and clarified blood were plated in LB agar culture medium and CFUs were counted after 24 h. For histopathological analysis, sections of lung were fixed with 4% paraformaldehyde, embedded in paraffin wax, and stained with H&E.

Data set [9] has as its system S. aureus ATCC6538. In words: S. aureus-induced bacteremia model. Format: in vivo, mouse. The following applies: RK22 8 mg/kg, vancomycin 4 mg/kg ip 1 h after infection, 4 h after administration. As to the method: as §4
Another data set addresses T1, FXa (Homo sapiens, UniProt P00742).
T1 construct: purchased Enzymeresearch, Lake Oswego, OR, USA
Put plainly: Enzymatic activity assay of coagulation factors, chromogenic substrate. The class given is biochemical. As to conditions: 40, 200, 1000 nM, 10 min pre-incubation, substrate S-2222, 405 nm. As to the method: (§5) The enzymatic activity of RK22 and LL-37 against coagulation factors was measured using the chromogenic substrate method. In brief, 5 μL of FXa (Enzymeresearch, Lake Oswego, OR, USA) (final concentration 3 μg/mL) or thrombin (Enzymeresearch, Lake Oswego, OR, USA) (final concentration 0.1056 μg/mL) and 5 μL of sample (final concentration 40, 200, and 1000 nM) were incubated for 10 min in 96-well plates, respectively. Following incubation, thrombin substrate (S-2238, Chromogenix, Milano, Italy, 45 μg/mL) or FXa substrate (S-2222, Chromogenix, Milano, Italy, 90 μg/mL) dissolved with 90 μL of enzyme dynamic buffer (100 mM NaCl, 50 mM Tris, 5 mM CaCl2, pH 8.0) were added and absorbance was measured at 405 nm every 1 min for 90 min.

The next data set concerns the target T2, thrombin (Homo sapiens, UniProt P00734).
T2 construct: purchased Enzymeresearch, Lake Oswego, OR, USA
The description is as above. Format: biochemical. As to conditions: 40, 200, 1000 nM, 10 min pre-incubation, substrate S-2238, 405 nm. As to the method:
as §5

The next data set concerns washed platelets. Put plainly: Platelet activity assay, flow cytometry. The class given is cell-based. The following applies: mouse washed platelets, 20, 10, 5, 2.5 μg/mL, 10 min, P-selectin. As to the method:
Platelets were isolated from the mice as described in a previous study with minor modifications. The effect of RK22 and LL-37 on platelet activity was detected by flow cytometry. Mouse blood was mixed with Tyrode’s buffer A (137 mM NaCl, 2 mM KCl, 0.3 mM NaH2PO4, 12 mM NaHCO3, 5.5 mM glucose, 0.35% BSA, 1 mM MgCl2, and 0.2 mM EDTA, pH 6.5) and centrifuged (150× g, 10 min, room temperature) to obtain platelet-rich plasma (PRP), which was then pelleted (400× g, 5 min, room temperature), washed with Tyrode’s buffer A, and finally resuspended in Tyrode’s buffer B (137 mM NaCl, 2 mM KCl, 0.3 mM NaH2PO4, 12 mM NaHCO3, 5.5 mM glucose, 0.35% BSA and 2 mM CaCl2, pH 7.4). Antibodies against P-selectin (Biolegend, San Diego, CA, USA) were added to the platelets, followed by incubation for 10 min at room temperature. Samples (20, 10, 5, and 2.5 μg/mL) or normal saline were added, respectively, and analyzed by flow cytometry (BD, LSRFortessa^TM, Franklin Lakes, NJ, USA).
In general terms: In flow cytometry, cells or beads pass a laser one at a time.

Setting [10] is: P. aeruginosa ATCC9027 in Table 3.

T1 sequence (P00742 235-488 limits assumed): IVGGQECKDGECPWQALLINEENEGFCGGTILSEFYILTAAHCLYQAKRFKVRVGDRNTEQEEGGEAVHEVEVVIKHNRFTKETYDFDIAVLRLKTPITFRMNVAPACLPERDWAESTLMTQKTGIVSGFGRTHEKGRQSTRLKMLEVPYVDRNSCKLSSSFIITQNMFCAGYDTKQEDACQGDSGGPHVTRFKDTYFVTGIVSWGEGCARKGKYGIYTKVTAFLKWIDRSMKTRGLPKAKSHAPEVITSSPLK
T1 sequence (P00742 41-179 partner limits assumed): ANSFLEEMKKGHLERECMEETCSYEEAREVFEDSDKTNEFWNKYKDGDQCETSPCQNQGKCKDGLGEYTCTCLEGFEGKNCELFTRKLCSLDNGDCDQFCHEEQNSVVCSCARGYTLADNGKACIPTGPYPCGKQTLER

On to `CC(C)C[C@H](NC(=O)[C@@H](NC(=O)[C@@H](NC(=O)[C@H](CS)NC(=O)[C@@H](NC(=O)[C@H](CCCCN)NC(=O)[C@H](CCCCN)NC(=O)[C@H](CCCCN)NC(=O)[C@H](CCCCN)NC(=O)[C@@H]1CCCN1C(=O)[C@H](CCCCN)NC(=O)[C@@H]1CCCN1C(=O)[C@H](CCCCN)NC(=O)[C@@H]1CCCN1C(=O)[C@H](CS)NC(=O)[C@H](CC(C)C)NC(=O)[C@@H](NC(=O)[C@H](C)NC(=O)[C@@H](N)CCCNC(=N)N)C(C)C)C(C)C)C(C)C)C(C)C)C(=O)O` [RA19] (H-RAVLCPKPKPKKKKVCVVL-OH; N-terminus and C-terminus assumed), for which the MIC result against P. aeruginosa, ATCC9027 (P. aeruginosa ATCC27853 as printed in the text) was “exceeding 100 μg/mL”; against E. coli, ATCC25922 (E. coli ATCC8739 as printed in the text), “exceeding 100 μg/mL”.
With `CN[C@H](CC(C)C)C(=O)N[C@H]1C(=O)N[C@@H](CC(N)=O)C(=O)N[C@H]2C(=O)N[C@H]3C(=O)N[C@H](C(=O)N[C@H](C(=O)O)c4cc(O)cc(O)c4-c4cc3ccc4O)[C@H](O)c3ccc(c(Cl)c3)Oc3cc2cc(c3O[C@@H]2O[C@H](CO)[C@@H](O)[C@H](O)[C@H]2O[C@H]2C[C@](C)(N)[C@H](O)[C@H](C)O2)Oc2ccc(cc2Cl)[C@H]1O` [Vancomycin, vancomycin, reference compound], the MIC (in data set [1]; in data set [2]; in data set [3]; against S. aureus (ATCC6538) (Staphylococcus aureus); in data set [4]; in [5]) was 1.56 µg/mL (≈ 1.08 µM) throughout. Also, the “MRSA-Z inhibited / eradicated” value in the data set on MRSA-Z [6] is “about 80%”. Also, the “time to a kill rate of more than 90%” value came out at 6 h in the data set with S. aureus ATCC6538 [7] (S. aureus ATCC6538, 5 × MIC) and 6 h in the data set on S. aureus ATCC6538 [7] (S. aureus ATCC6538, 10 × MIC). Moreover, the “infection-induced tissue injury in the lung (H&E)” value with MRSA-Z [8] is “significantly alleviated”. Besides, the “infection-induced hemorrhage and inflammatory cell infiltration in the lung (H&E)” value with S. aureus ATCC6538 [9] is recorded as “significantly alleviated”.
For “KSKSKKPSKSKPKKKKTSVVQQELQDVISFDFGC [KS34]”, the MIC against P. aeruginosa, ATCC9027 (setting [10]) is over 100 µg/mL; with E. coli, ATCC25922 (E. coli ATCC25922) it was over 100 µg/mL.
With KSSNTKAKKKKKNN [KS14], the MIC in the data set with S. aureus (ATCC6538) is 50 µg/mL; with P. aeruginosa, ATCC9027 (setting [10]) it was over 100 µg/mL; in the data set with E. coli, ATCC25922 (E. coli ATCC25922) it was over 100 µg/mL.
For the compound KTRRRNRKHKKTINTETVQI [KT20], the MIC with S. aureus (ATCC6538) is 50 µg/mL; against P. aeruginosa, ATCC9027 (setting [10]), over 100 µg/mL; in the data set on E. coli, ATCC25922 (E. coli ATCC25922), over 100 µg/mL.
As for LL-37, the “effect on enzymatic activity of FXa” value at FXa is listed as “significant potentiation activity”. For the same compound, on thrombin, the “effect on enzymatic activity of thrombin” value is reported as “significant potentiation activity”. Also, in the data set on washed platelets, the platelet activation entry was “significant and dose-dependent effects on platelet activation”.
Regarding VFLICFSLISPASFENVRAKW [VF21], the MIC with P. aeruginosa, ATCC9027 (setting [10]) was over 100 µg/mL; against E. coli, ATCC25922 (E. coli ATCC25922) it was over 100 µg/mL.
